According to article PMC8252455, “Prediction of a clinically effective dose of THY1773, a novel V 1B receptor antagonist, based on preclinical data” (Biopharmaceutics & Drug Disposition, 2021):

Key:
[1] = Parallel artificial membrane permeability assay (PAMPA); type: in vitro ADME
Description: The membrane permeability of THY1773 was measured using a parallel artificial membrane permeability assay (PAMPA) Evolution instrument (Pion Inc.). A “sandwich” plate consisting of a donor bottom plate with stir bars and an acceptor filter plate was used for the experiment. A donor plate was prepared by the addition of THY1773 to diluted PRISMA HT at pH 6.2 (final concentration of 12.5 μmol/L). An acceptor plate was coated with GIT‐0 lipid solution, followed by the addition of acceptor sink buffer (pH 7.4). After incubation for 4 h at room temperature, the concentrations of THY1773 in the reference, donor, and acceptor solutions were measured with a UV plate reader. The apparent permeability (Papp) was calculated using the PAMPA Evolution software (version 3.1; Pion Inc.).

CYP2D6 = biological target: T1, CYP2D6 (Homo sapiens, UniProt P10635); test: Reaction phenotyping in HLMs with quinidine; type: in vitro ADME
T1 construct: THY1773 (500 nmol/L) was incubated with pooled HLMs (0.5 mg protein/ml); tissue Sekisui XenoTech, LLC; host or cells: pooled human liver microsomes (50 donors)
Description: Reaction phenotyping using cDNA expressed recombinant human CYP isoforms, CYP1A2, CYP2B6, CYP2C8, CYP2C9, CYP2C19, CYP2D6, and CYP3A4, was conducted. Each recombinant enzyme (100 pmol/ml) in potassium phosphate buffer (pH 7.4; 100 mmol/L for CYP3A4, 50 mmol/L for the others) was preincubated with [^3H]THY1773 (10 μmol/L) at 37°C for 5 min. The reactions were initiated by the addition of NADPH‐generating system (1 mmol/L NADP^+, 5 mmol/L G‐6‐P, 1 unit/ml G‐6‐PDH, and 5 mmol/L MgCl2) and incubated for 0 or 60 min. The reactions were terminated by the addition of an equal volume of acetonitrile/methanol (9:1, vol/vol), followed by centrifugation at 1650 × g for 10 min at 4°C. An aliquot of the supernatant was subjected to an Agilent 1200 HPLC system (Agilent Technologies, Inc.) equipped with a radiochemical flow detector (Radiomatic 625TR; Perkin Elmer, Inc.), and formation of metabolites was evaluated. Reaction phenotyping study was also conducted using HLMs and selective chemical inhibitors for CYP2D6 and CYP3A, which were assumed to have significant roles in THY1773 metabolism from recombinant metabolic stability. Quinidine (1 μmol/L) for CYP2D6 and ketoconazole (1 μmol/L) for CYP3A were used as selective inhibitors. THY1773 (500 nmol/L) was incubated with pooled HLMs (0.5 mg protein/ml) in potassium phosphate buffer (100 mmol/L, pH 7.4) in the absence or presence of the selective inhibitors. The reactions were initiated by the addition of NADPH generating system (1.3 mmol/L β‐NADP^+, 3.3 mmol/L G‐6‐P, 3.3 mmol/L MgCl2, and 0.4 units/ml G‐6‐PDH), and incubated at 37°C for 30 min. The reactions were terminated by the addition of two volumes of acetonitrile/methanol (9:1, vol/vol) containing the IS. […] The CLint was calculated by the method as described previously under metabolic stability in animal liver microsomes, and the fraction metabolized (fm) was calculated by Equation (1): (1) fm=1−(CLint, with inh/CLint) where CLint is intrinsic clearance without specific inhibitor and CLint,with inh is intrinsic clearance in the presence of specific inhibitor.

[2] = Plasma protein binding by equilibrium dialysis, human plasma; type: in vitro ADME; details: PBPK input, experimental data
Description: (§1) The plasma protein binding of THY1773 in rats, dogs, and humans was evaluated by an equilibrium dialysis method using a 96‐well equilibrium dialysis plate (HTDialysis) with a 12–14 kDa cut‐off dialysis membrane. THY1773 was dissolved in dimethyl sulfoxide, and spiked with rat, dog, or human plasma at a final concentration of 300 ng/ml. An aliquot of plasma containing THY1773 and sodium phosphate buffer (pH 7.4) was added into the donor side and the receiver side of each designated well, respectively. After incubation for 6 h at a rate of 50 oscillation/min at 37°C in an air incubator, an aliquot of each side of each well was collected and mixed with acetonitrile/methanol (9:1, vol/vol) containing the IS. Each sample was centrifuged at 3974 × g for 10 min at 4°C to remove the precipitated proteins, and the resultant supernatants were subjected to LC‐MS/MS analysis. The protein binding (%) was calculated using the Boudinot formula (Boudinot & Jusko, 1984).

[3] = Prediction of human CLtotal (FCIM, two-species allometry, IVIVE)
From the text: Of the many reported methods for the prediction of human CL, the top two methods reported by Ring et al. (2011) were selected based on prediction accuracy; that is, the unbound fraction corrected intercept method (FCIM) and two‐species‐based allometry (rat and dog) described by Equations (2) and (3), respectively (Tang, Hussain, Leal, Mayersohn, & Fluhler, 2007; Tang & Mayersohn, 2005): (2) CLhuman(mL/min/kg)=33.35×(a/Rfu)^0.77/Humanbodyweight(kg) (3) CL=a×(Humanbodyweight)^0.628 where the allometric coefficient (a) is obtained from the intercept of the simple allometry log–log plot between rats and dogs, and Rfu is the ratio of unbound fraction in plasma between rats and humans. Human body weight was assumed to be 70 kg. The hepatic CL (CLliver) was also predicted by physiologically based in vitro–in vivo extrapolation (IVIVE) method using physiological parameters listed in Table 1 based on the well stirred model (Yang, Jamei, Yeo, Rostami‐Hodjegan, & Tucker, 2007).
Since the CLliver was underestimated in rats and dogs from CLint in liver microsomes, the ratio of observed in vivo CLint and predicted CLint was calculated as the empirical scaling factor (ESF) for the extrapolation of CLliver from in vitro data. Human CLliver was predicted from CLint in HLMs with and without applying the average of ESF derived from rats and dogs. The total plasma clearance (CLtotal) was calculated by Equation (4): (4) CLtotal=QH×fu×(CLint/fu,mic)/QH+(fu/Rb)×(CLint/fu,mic)+CLrenal where QH is hepatic blood flow, fu is the free fraction in plasma, fu,mic is the fraction unbound in HLMs, Rb is blood‐to‐plasma ratio, and CLrenal is renal clearance. The fu,mic value was calculated using the Simcyp population based simulator (Version 16 R1; Simcyp Ltd.). The CLrenal was estimated by multiplying fu by glomerular filtration rate (GFR), assuming glomerular filtration only.
The fold error of the difference between observed and predicted human PK parameters was calculated by dividing the predicted value by the observed value.

[4] = Plasma protein binding by equilibrium dialysis, dog plasma; type: in vitro ADME; details: 300 ng/ml
Description: as §1

depressive-like behavior = system: depressive-like behavior; parameters: method as in Kamiya et al., 2020; details: ref Kamiya et al., 2020; cited from earlier work

T1 sequence (P10635 whole entry): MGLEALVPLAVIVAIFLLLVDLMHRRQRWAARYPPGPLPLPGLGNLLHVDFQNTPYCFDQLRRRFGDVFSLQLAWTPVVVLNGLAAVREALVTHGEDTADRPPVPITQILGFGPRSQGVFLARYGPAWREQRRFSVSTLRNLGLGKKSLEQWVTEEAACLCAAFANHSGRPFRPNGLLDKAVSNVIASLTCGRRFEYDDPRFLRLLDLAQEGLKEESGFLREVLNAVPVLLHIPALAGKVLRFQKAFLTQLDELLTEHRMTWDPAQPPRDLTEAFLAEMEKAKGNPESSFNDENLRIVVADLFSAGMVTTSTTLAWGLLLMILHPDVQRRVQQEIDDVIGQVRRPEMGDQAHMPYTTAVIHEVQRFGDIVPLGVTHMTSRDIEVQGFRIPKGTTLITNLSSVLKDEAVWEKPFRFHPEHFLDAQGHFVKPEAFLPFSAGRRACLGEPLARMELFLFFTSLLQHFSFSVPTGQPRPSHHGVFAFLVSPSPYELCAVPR

SMILES: CC(C)NC(=O)Cn1c(-c2cccc(Cl)c2)nn(-c2ccc(CCN3CCOCC3)cc2)c1=O [THY1773]
- Papp in PAMPA ([1]; donor pH 6.2, 12.5 μmol/L, 4 h, room temperature): 128.9 10^−6 cm/s
- Permeability in the gut (assessment from PAMPA) ([1]; pH 6.2): high permeability
- CLint (CYP2D6; HLMs, with quinidine 1 μmol/L): 10.2 ± 0.509 µL/min/mg
- fm,CYP2D6 (CYP2D6; PBPK input, experimental data): 0.089
- fm (fraction metabolized) (CYP2D6; by CYP2D6, HLMs, quinidine 1 μmol/L): 0.0893
- Fraction unbound in plasma [2]: 0.017
- Predicted human CLtotal ([3]; FCIM): 1.07 mL/min/kg
- Predicted human CLtotal ([3]; IVIVE method with ESF): 1.06 mL/min/kg
- Predicted human CLtotal ([3]; IVIVE method without ESF): 0.25 mL/min/kg
- Predicted human CLtotal ([3]; Two species allometry (rat and dog)): 3.73 mL/min/kg
- Plasma protein binding [4]: 89.6%
- Effect on depressive-like behavior induced by repeated corticosterone injection (depressive-like behavior): significantly improved
